# Measurements taken from ChEMBL document CHEMBL1130906, “Actinomycin D, C2 and VII, inhibitors of Grb2-SHC interaction produced by Streptomyces” (Bioorg Med Chem Lett, 1998).
# Numbered stars: 1 amine (or outer) side, 2 acyl side, 3 side chain; on linkers, the order of the positions; unused ones are H or OH. Bridge positions count the residues as written; N and C are the ends. Square brackets hold non-standard residues; d marks the D form. Peptide text beside a SMILES is read from it. I, II: the chains in the order shown. Actinocin(1to9) = Cc1c2oc3c(C)ccc(C(=O)[*:2])c3nc-2c(C(=O)[*:1])c(N)c1=O; Actinocin(9to1) = Cc1c2oc3c(C)ccc(C(=O)[*:1])c3nc-2c(C(=O)[*:2])c(N)c1=O; NMeV = CN[CH](C(=O)O)C(C)C; Sar = CNCC(=O)O
# Target: Growth factor receptor-bound protein 2 (Homo sapiens, UniProt P62993)
# Assay: Inhibition of GST-Grb2 Tyrosine kinase SH2 domain binding to [3H]labeled-phosphopeptide (Ac-SpYVNK-NH-C(O)-CH2CH2H3)
row,IC50 [µM],SMILES
1,7.6,"CCC(C)C1NC(=O)C(NC(=O)c2c3nc4c(C(=O)NC5C(=O)NC(C(C)CC)C(=O)N6CCCC6C(=O)N(C)CC(=O)N(C)C(C(C)C)C(=O)OC5C)ccc(C)c4oc-3c(C)c(=O)c2N)C(C)OC(=O)C(C(C)C)N(C)C(=O)CN(C)C(=O)C2CCCN2C1=O (stereo not drawn) (I: TIP[Sar][NMeV] / II: TIP[Sar][NMeV]; ester I:1-I:C, II:1-II:C; linker I:N-II:N via Actinocin(1to9); configuration not given here)"
2,5,"Cc1c2oc3c(C)ccc(C(=O)N[C@@H]4C(=O)N[C@H](C(C)C)C(=O)N5CCC[C@H]5C(=O)N(C)CC(=O)N(C)[C@@H](C(C)C)C(=O)O[C@@H]4C)c3nc-2c(C(=O)N[C@@H]2C(=O)N[C@H](C(C)C)C(=O)N3CCC[C@H]3C(=O)N(C)CC(=O)N(C)[C@@H](C(C)C)C(=O)O[C@@H]2C)c(N)c1=O [DACTINOMYCIN] (I: T[dV]P[Sar][NMeV] / II: T[dV]P[Sar][NMeV]; ester I:1-I:C, II:1-II:C; linker I:N-II:N via Actinocin(9to1))"
3,5.9,"CC[C@H](C)[C@@H]1NC(=O)[C@@H](NC(=O)c2ccc(C)c3oc4c(C)c(=O)c(N)c(C(=O)N[C@@H]5C(=O)N[C@@H](C(C)C)C(=O)N6CCC[C@H]6C(=O)N(C)CC(=O)N(C)[C@@H](C(C)C)C(=O)O[C@@H]5C)c-4nc23)[C@@H](C)OC(=O)[C@H](C(C)C)N(C)C(=O)CN(C)C(=O)[C@@H]2CCCN2C1=O (I: TIP[Sar][NMeV] / II: TVP[Sar][NMeV]; ester I:1-I:C, II:1-II:C; linker I:N-II:N via Actinocin(9to1))"
